Entries after “also recorded” stand apart in the source; their conditions may differ.
Key:
[1] = system: 32DtetP210Bcr-Abl cells (32D-bcr-abl); assay: Low cell density cell proliferation / cell death assay, bcr-abl dependent cells; type: cell-based, murine; settings: for activity (death of 32D-bcr-abl cells) / selectivity (32D-bcr-abl over control cells): result in words; for activity (death of 32D-bcr-abl cells): structure-activity comparison; for selectivity (32D-bcr-abl over control cells): versus control 32D cell line; for activity / selectivity: in words; for inhibition of the 32DtetP210bcrabl cell line: 1 micromolar, FIG. 13, in words
Method: (§1) The acetylenes were prepared by deprotonation of a propiolate (either methyl or tert-butyl) with n-butyllithium and subsequent reaction with an isocyanate (FIG. 4). Modifications may be readily made following the aforementioned schemes. The furan and acetylene libraries were both tested for activity in a cell-based assay where the death of engineered murine myeloid cells (32D-bcr-abl), the survival of which depends on the activity of bcr-abl tyrosine kinase, was sought.
(§2) The biological activity of these compounds was evaluated in two ways, a murine cell line differential proliferation assay and a NCI 60 human carcinoma cell-line growth inhibition and cell death assay. The murine cell death assays were performed using a p210bcrabl transformed 32D murine cell line. […] The NCl assay was performed in the Developmental Therapeutics Program at the National Cancer Institute. This assay measures the inhibition of cell growth and cell death from sixty different human carcinomas.
(§3) The furan and acetylene libraries were both tested for activity in a cell-based assay where the death of engineered murine myeloid cells (32D-bcr-abl), the survival of which is depends on the activity of bcr-abl tyrosine kinase, was sought.
(§4) Low cell density high throughput cell proliferation assay Between 50 and 100 32D and 32DtetP210Bcr-Abl cells in 100 microliters of medium without serum were exposed to the test compound for 15 minutes. An equal volume of 20% serum supplemented tissue culture medium was then added and the cells were inoculated in single well in 32 wells of a 96 well plate. The endpoint of the assay was the fraction of the 32 wells in which a cell pellet was seen to develop which was filled with live cells. This assay is subject to automated screening by a plate reader for the cell pellet. We used this high throughput assay to screen for compounds that suppress the growth of the 32DtetP210Bcr-Abl cell line in the absence of IL-3, but allow the growth of the 32D cell line in the presence of IL-3. Various concentrations of each compound were tested.

32D cells = assay: Low cell density cell proliferation assay, control cell line; type: cell-based, murine; settings: for control cells surviving: 100 nM
Method: as §1
as §2, with “carcinomas. Both the acetylene and furan structural cores represent novel chemical entities with no prior reports of biological activity. […] At present, the use of these compounds is to be preferred in the treatment of tumors and cancer.” for “carcinomas.”
as §3, §4

[2] = system: 60 human carcinoma cell lines; assay: NCI 60 human carcinoma cell-line growth inhibition and cell death assay, whole panel; type: cell-based
Method: as §2, with “carcinomas. Both the acetylene and furan structural cores represent novel chemical entities with no prior reports of biological activity. […] At present, the use of these compounds is to be preferred in the treatment of tumors and cancer.” for “carcinomas.”
(§5) In order to obtain additional information about the behavior of our compounds in cancerous cells, 18 compounds were submitted to and accepted by the NCl for testing on 60 human carcinoma cell lines as set forth in the examples section. This would confirm the activity seen in our cell-based assay and maybe give an insight into the mechanism of action and biological target of the acetylene/furan compounds. […] As a result, K1P was singled out by the NCl for further testing: MTD (Maximum Tolerated Dose) and murine hollow fiber in vivo assay. These are being carried out at the present time, along with testing of furans AN7A and AN7B in the 60 human cancer cell lines. […]

[3] = system: carcinoma and model carcinoma cell lines; assay: Summary of activity in the cell line assays; type: cell-based; settings: in words
Method: as §2, with “carcinomas. Both the acetylene and furan structural cores represent novel chemical entities with no prior reports of biological activity. […] At present, the use of these compounds is to be preferred in the treatment of tumors and cancer.” for “carcinomas.”

CDK2/cyclinA = biological target: T1, CDK2/cyclinA (Homo sapiens, UniProt P24941); assay: Cell free kinase inhibition assay; type: biochemical
T1 construct: purchased Upstate Biotechnologies, Lake Placid, N.Y
Method: (§6) Cell Free Kinase Inhibition Assay. A panel of 60 kinases (Upstate Biotechnologies, Lake Placid, N.Y.) were analyzed in in vitro cell free kinase assays.

CK1 = assay: Cell free kinase inhibition assay; type: biochemical
Method: as §6

CaMKII = assay: Cell free kinase inhibition assay; type: biochemical
Method: as §6

CaMKIV = biological target: T2, CaMKIV (Homo sapiens, UniProt Q16566); assay: Cell free kinase inhibition assay; type: biochemical
T2 construct: purchased Upstate Biotechnologies, Lake Placid, N.Y
T2 sequence (Q16566 1-473): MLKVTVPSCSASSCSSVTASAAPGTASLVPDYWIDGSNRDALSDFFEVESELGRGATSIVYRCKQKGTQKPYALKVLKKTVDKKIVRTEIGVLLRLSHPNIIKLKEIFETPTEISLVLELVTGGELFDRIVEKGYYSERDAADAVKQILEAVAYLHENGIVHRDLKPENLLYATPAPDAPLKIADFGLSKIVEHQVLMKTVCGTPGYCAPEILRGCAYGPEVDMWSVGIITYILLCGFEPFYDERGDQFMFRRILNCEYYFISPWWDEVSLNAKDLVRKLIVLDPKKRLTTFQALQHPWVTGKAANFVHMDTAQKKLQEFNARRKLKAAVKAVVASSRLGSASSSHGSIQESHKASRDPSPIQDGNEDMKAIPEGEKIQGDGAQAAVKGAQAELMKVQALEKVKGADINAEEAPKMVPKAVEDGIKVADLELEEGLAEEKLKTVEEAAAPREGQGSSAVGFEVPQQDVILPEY
Method: as §6

Fyn = biological target: T3, Fyn (Homo sapiens, UniProt P06241); assay: Cell free kinase inhibition assay; type: biochemical
T3 construct: purchased Upstate Biotechnologies, Lake Placid, N.Y
Method: as §6

IKKBeta = biological target: T4, IKKBeta (Homo sapiens, UniProt O14920); assay: Cell free kinase inhibition assay; type: biochemical
T4 construct: purchased Upstate Biotechnologies, Lake Placid, N.Y
T4 sequence (O14920 1-756): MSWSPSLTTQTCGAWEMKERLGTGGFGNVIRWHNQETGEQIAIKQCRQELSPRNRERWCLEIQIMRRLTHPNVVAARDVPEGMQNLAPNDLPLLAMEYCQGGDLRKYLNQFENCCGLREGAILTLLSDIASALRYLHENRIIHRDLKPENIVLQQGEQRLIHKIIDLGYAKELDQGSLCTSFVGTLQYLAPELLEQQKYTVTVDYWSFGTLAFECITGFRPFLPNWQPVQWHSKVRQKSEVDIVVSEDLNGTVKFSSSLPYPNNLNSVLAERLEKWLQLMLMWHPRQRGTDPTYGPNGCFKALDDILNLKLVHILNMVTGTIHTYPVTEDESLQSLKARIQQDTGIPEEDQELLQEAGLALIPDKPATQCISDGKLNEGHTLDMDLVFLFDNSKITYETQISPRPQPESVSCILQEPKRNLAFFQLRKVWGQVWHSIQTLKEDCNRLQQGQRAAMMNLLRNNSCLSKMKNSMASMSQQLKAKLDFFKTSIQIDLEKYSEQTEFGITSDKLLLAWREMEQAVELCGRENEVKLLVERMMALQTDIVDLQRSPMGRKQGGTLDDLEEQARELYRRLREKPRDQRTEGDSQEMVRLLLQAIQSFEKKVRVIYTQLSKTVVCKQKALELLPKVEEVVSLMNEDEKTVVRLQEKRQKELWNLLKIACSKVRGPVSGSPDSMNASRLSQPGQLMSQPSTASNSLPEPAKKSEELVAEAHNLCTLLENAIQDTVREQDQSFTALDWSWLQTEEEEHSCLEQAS
Method: as §6

Lyn = biological target: T5, Lyn (Homo sapiens, UniProt P07948); assay: Cell free kinase inhibition assay; type: biochemical
T5 construct: purchased Upstate Biotechnologies, Lake Placid, N.Y
Method: as §6

PKCbII = biological target: T6, PKCbII (Homo sapiens, UniProt P05771); assay: Cell free kinase inhibition assay; type: biochemical
T6 construct: purchased Upstate Biotechnologies, Lake Placid, N.Y
Method: as §6

PKCy = biological target: T7, PKCy (Homo sapiens, UniProt P05129); assay: Cell free kinase inhibition assay; type: biochemical
T7 construct: purchased Upstate Biotechnologies, Lake Placid, N.Y
Method: as §6

leukemia cell lines = assay: NCI 60 human carcinoma cell-line growth inhibition assay, leukemia panel; type: cell-based; settings: span over the lines
Method: as §2, with “carcinomas. Both the acetylene and furan structural cores represent novel chemical entities with no prior reports of biological activity. […] At present, the use of these compounds is to be preferred in the treatment of tumors and cancer.” for “carcinomas.”
as §5

renal cell lines = assay: NCI 60 human carcinoma cell-line growth inhibition assay, renal panel; type: cell-based; settings: span over the lines
Method: as §2, with “carcinomas. Both the acetylene and furan structural cores represent novel chemical entities with no prior reports of biological activity. […] At present, the use of these compounds is to be preferred in the treatment of tumors and cancer.” for “carcinomas.”
as §5

T6 sequence (P05771 1-673 isoform P05771-2): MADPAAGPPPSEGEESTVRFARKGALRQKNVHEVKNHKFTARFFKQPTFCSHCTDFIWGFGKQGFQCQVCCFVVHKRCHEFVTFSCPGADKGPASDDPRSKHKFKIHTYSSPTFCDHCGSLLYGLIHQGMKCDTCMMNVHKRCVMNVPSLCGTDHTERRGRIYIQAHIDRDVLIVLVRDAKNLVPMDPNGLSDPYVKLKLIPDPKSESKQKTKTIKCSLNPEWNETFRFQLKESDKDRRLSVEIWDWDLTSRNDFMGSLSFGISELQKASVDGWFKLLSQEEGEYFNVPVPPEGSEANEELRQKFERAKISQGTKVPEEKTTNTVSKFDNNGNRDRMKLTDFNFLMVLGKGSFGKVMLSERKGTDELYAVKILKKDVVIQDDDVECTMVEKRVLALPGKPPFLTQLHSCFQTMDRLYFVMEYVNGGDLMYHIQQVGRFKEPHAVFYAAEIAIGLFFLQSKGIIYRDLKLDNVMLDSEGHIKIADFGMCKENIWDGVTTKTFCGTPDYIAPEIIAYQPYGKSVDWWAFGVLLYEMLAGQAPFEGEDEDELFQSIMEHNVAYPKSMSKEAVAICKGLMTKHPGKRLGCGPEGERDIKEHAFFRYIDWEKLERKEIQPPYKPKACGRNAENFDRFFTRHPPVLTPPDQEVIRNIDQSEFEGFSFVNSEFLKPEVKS
T3 sequence (P06241 whole entry, species assumed): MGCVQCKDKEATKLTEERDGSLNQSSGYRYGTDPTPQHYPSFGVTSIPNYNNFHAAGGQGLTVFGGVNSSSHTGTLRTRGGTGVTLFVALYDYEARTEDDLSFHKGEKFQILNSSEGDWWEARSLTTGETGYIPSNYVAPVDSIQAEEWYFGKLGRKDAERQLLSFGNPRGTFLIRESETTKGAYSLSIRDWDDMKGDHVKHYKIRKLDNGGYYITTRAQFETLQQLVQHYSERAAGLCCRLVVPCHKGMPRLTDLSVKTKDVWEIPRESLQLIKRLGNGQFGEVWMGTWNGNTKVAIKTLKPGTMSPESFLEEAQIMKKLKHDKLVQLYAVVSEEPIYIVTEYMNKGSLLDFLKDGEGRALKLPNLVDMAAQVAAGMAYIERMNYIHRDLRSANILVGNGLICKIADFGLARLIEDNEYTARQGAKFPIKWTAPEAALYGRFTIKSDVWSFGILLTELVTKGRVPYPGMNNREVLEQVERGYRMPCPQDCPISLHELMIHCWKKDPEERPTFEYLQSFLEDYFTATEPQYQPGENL
T5 sequence (P07948 whole entry, species assumed): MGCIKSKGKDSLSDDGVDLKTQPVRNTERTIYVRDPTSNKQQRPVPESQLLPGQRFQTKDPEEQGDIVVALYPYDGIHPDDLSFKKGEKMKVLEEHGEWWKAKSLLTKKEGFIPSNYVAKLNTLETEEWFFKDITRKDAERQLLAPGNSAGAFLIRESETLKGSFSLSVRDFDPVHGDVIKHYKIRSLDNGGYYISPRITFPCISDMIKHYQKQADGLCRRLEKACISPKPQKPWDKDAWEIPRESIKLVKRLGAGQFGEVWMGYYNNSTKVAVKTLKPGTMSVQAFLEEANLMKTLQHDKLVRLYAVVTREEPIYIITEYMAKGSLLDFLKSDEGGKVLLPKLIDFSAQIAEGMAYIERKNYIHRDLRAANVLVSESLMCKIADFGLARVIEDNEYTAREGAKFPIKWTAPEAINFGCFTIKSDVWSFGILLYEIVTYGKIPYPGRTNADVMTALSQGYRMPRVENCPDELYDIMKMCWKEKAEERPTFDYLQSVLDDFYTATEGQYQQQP

## CC(C)(C)OC(=O)C#CC(=O)NC1CCCCC1 [AC1]
[1]; 100 nM
  leukemic cells surviving: 50%
32D cells
  control cells surviving: 100%

## COC(=O)C#CC(=O)Nc1ccc(OC)cc1 [AC3]
[1]
  activity (death of 32D-bcr-abl cells): decreased activity and selectivity dramatically
  selectivity (32D-bcr-abl over control cells): decreased activity and selectivity dramatically

## COC(=O)C#CC(=O)Nc1ccccc1 [AC6]
[1]
  activity (death of 32D-bcr-abl cells): increased both selectivity and activity
  selectivity (32D-bcr-abl over control cells): increased both selectivity and activity

## COC(=O)C#CC(=O)Nc1c(F)cccc1F [AC9]
[1]
  activity (death of 32D-bcr-abl cells): inactive

## COC(=O)C#CC(=O)Nc1c(C(C)C)cccc1C(C)C [AC10]
[1]
  activity (death of 32D-bcr-abl cells): moderate activity
  selectivity (32D-bcr-abl over control cells): no selectivity

## COC(=O)C#CC1CCCCC1 [AC11]
[1]
  activity (death of 32D-bcr-abl cells): little or no activity

## COC(=O)C#CC(=O)NCc1ccccc1 [AC13]
[1]
  activity (death of 32D-bcr-abl cells): active
  selectivity (32D-bcr-abl over control cells): little selectivity

## COC(=O)C#CC(=O)Nc1cccc(OC)c1 [AC15]
[1]; 1 uM level
  activity: activity was regained
  selectivity: selectivity remained low

## COC(=O)C#CC(=O)Nc1ccccc1OC [AC16]
[1]; 1 uM level
  activity: activity was regained
  selectivity: selectivity remained low

## COC(=O)C#CC(=O)Nc1cc(OC)cc(OC)c1 [AC17]
[1]; 1 uM level
  activity: activity was regained
  selectivity: selectivity remained low

## COC(=O)C#CC(=O)Nc1ccc2ccccc2c1 [AC19]
[1]; 100 nM
  activity: excellent activity
  selectivity: shows selectivity
[2]; NCI 60 cell lines
  concentration below which no activity was shown: ≥ 10 µM
[3]
  activity against carcinoma and model carcinoma cell lines: good activity

## COC(=O)C#CC(=O)Nc1ccc(-c2ccccc2)cc1 [AC21]
[1]; 100 nM
  activity: excellent activity
  selectivity: only AC19 shows selectivity

## COC(=O)C#CC(=O)Nc1ccc(Oc2ccccc2)cc1 [AC22]
[1]; 10 nM
  activity: not active
[1]; 100 nM
  activity: excellent activity; also recorded: very active
  selectivity: not selective
[1]
  inhibition of the 32DtetP210bcrabl cell line: inhibitory
[1]; Mus musculus, 10 nanomolar of each drug, 32DtetP210bcrabl cell line, read-out: inhibition of P210bcrabl dependent cell growth
  inhibition at 0.01 µM: 10%
32D cells; similar concentration (1 micromolar), in words
  inhibition of the 32Dtet cell line: inhibits
CDK2/cyclinA
  inhibition at 10 µM: 50%
CK1
  % Inhibition at 10 μM: (37) %
CaMKII
  % Inhibition at 10 μM: 40%
CaMKIV
  inhibition at 10 µM: 64%
Fyn
  inhibition at 10 µM: 29%
IKKBeta
  inhibition at 10 µM: 45%
Lyn
  inhibition at 10 µM: 98%
PKCbII
  inhibition at 10 µM: 48%
PKCy
  inhibition at 10 µM: 61%
Leukemia cell lines
  GI50: 2.6 to 7.3 µM
[3]
  activity against carcinoma and model carcinoma cell lines: good activity

## COC(=O)C#CC(=O)NC1CCCCC1 [K1P]
[1]; 100 nM
  leukemic cells surviving: 50%
[1]
  inhibition of the 32DtetP210bcrabl cell line: inhibitory
32D cells
  control cells surviving: 100%
CK1
  % Inhibition at 10 μM: 46%
Fyn
  inhibition at 10 µM: 49%
PKCbII
  inhibition at 10 µM: 35%
Leukemia cell lines
  GI50: 0.8 to 5 µM
Renal cell lines
  GI50: 2.5 to 2.7 µM
[2]; certain leukemia, colon cancer, melanoma, renal cancer cell lines and a breast cancer cell line, in words
  activity in the NCI cell lines: enhanced activity
[3]
  activity against carcinoma and model carcinoma cell lines: good activity

## Cc1ccc(NC(=O)c2ccc(CN3CCN(C)CC3)cc2)cc1Nc1nccc(-c2cccnc2)n1 [STI-571, reference compound]
32D cells; 10 nM, in words
  control cells alive: all the control cells are still alive

— patent publication US7304092B1, “Compounds and methods for treating tumors, cancer and hyperproliferative diseases” (Yale University, priority 2002, dated 2007)
